Values of other authors as cited in paper PMC11331742 (Military Medical Research, 2024).

What was measured:
preclinical models = tested on: preclinical models
Excerpt: (§1) In addition, studies involving MC2r-independent agonists such as PT-141 could provide insight into cortisol-independent anti-inflammatory mechanisms.

MC2r = tested on: MC2r; design: method as in PMID 25140322
[1] = tested on: mouse model of acute lung injury
Excerpt: as §1

Row | Compound | anti-inflammatory effects (preclinical models) | affinity for MC2r (MC2r) | effect on inflammation [1]
1 | CCCC(=O)C1(c2ccccc2)CCN(C(=O)[C@@H](Cc2ccc(OC)cc2)NC(=O)[C@@H](N)Cc2cncn2C)CC1 [BMS-470539] | promising anti-inflammatory effects |  | 
2 | α-melanocyte-stimulating hormone [α-MSH] |  | minimal affinity | reduced inflammation
